The test system of series [1] is SUDHL10. Kind of series: Induction of cytotoxicity (CellTiter-Glo, 5 h), SUDHL10.
In series [2] the test system is A2780. In words: Anti-proliferative effect (CellTiter-Glo, 72 h), A2780. The series is classed as cell-based. To be noted: A2780 cells, median, read-out: IC50 antiproliferation assay A2780 [M] (median). The procedure, abridged:
(§1)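 CTG luminescence read-out after 72 h compound exposure, 37 °C, humidified. Time-zero reference plate read at plating.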
In general terms: ATP-based viability assays read luminescence as a measure of living cells.

Series [3] addresses MCL-1 (Homo sapiens, UniProt Q07820). In words: Protein-protein interaction assay MCL-1/Noxa BH3 peptide (MCL-1 assay), TR-FRET. The class given is binding. The conditions noted are these: MBP-MCL-1 / Noxa BH3-derived peptide, median. The procedure, abridged:
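Displacement of the biotinylated Noxa BH3 peptide from MBP-tagged human MCL-1 (1 nM) is detected by time-resolved FRET. Compounds are tested in duplicate across eleven concentrations up to 20 μM, incubated 1 h at 22 °C and overnight at 4 °C, and IC50 is fitted with a four-parameter equation.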

Series [4] relates to SUDHL5. Kind of series: Induction of caspase-3/7 activity (Caspase-Glo 3/7), SUDHL5. The class given is cell-based. The conditions noted are these: caspase-3/7 induction, SUDHL5 cells, 3 h treatment, median. The procedure, abridged: (§2)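 Caspase-Glo 3/7 luminescence, 3 h compound exposure, 37 °C, humidified. Minus medium-only blank. EC50 fit: C0=1, plateau = reference max induction.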

Series [5] has as its system MV-4-11. In words: Anti-proliferative effect (CellTiter-Glo, 72 h), MV-4-11. The series is classed as cell-based. The conditions noted are these: median, read-out: IC50 antiproliferation assay MV-4-11 [M] (median). The procedure, abridged: as §1
The test system of series [6] is OPM2. Kind of series: Anti-proliferative effect (CellTiter-Glo, 72 h), OPM2. The class given is cell-based. To be noted: OPM2 cells, median, read-out: IC50 antiproliferation assay OPM2 [M] (median). A digest of the protocol: as §1
In series [7] the test system is SUDHL10. In words: Anti-proliferative effect (CellTiter-Glo, 72 h), SUDHL10. The class given is cell-based. The conditions noted are these: SUDHL10 cells, antiproliferation, median, read-out: Antiproli SUDHL10 [M] (median). A digest of the protocol:
as §1

In series [8] the test system is SUDHL5. In words: Induction of cytotoxicity (CellTiter-Glo, 5 h), SUDHL5.
Series [9] deals with SUDHL5. Kind of series: Anti-proliferative effect (CellTiter-Glo, 72 h), SUDHL5. The class given is cell-based. The conditions noted are these: SUDHL5 cells, antiproliferation, median, read-out: Antiproli SUDHL5 [M] (median). A digest of the protocol: as §1
The subject of series [10] is SUDHL10. In words: Induction of caspase-3/7 activity (Caspase-Glo 3/7), SUDHL10. The series is classed as cell-based. To be noted: caspase-3/7 induction, SUDHL10 cells, 3 h treatment, median. A digest of the protocol: as §2
[11] abbreviates: Homo sapiens, SU-DHL10, 5 h, read-out: Cytotox SUDHL10 [M] (median), SUDHL10 cells, cytotoxicity induction, CellTiter-Glo, 5 h incubation, median.
Where [12] appears, read: Homo sapiens, MV4-11, 72 h, MV-4-11 cells.
[13] abbreviates: Homo sapiens, SU-DHL10, 72 h, 72 h incubation.
Setting [14] is: Homo sapiens, SU-DHL-5, 5 h, read-out: Cytotox SUDHL5 [M] (median), SUDHL5 cells, cytotoxicity induction, CellTiter-Glo, 5 h incubation, median.
Where [15] appears, read: Homo sapiens, SU-DHL-5, 72 h, 72 h incubation.
[16] abbreviates: read-out: Cytotox SUDHL5 [M] (median), SUDHL5 cells, cytotoxicity induction, CellTiter-Glo, 5 h incubation, median.
The mark [17] stands for this setting: read-out: Cytotox SUDHL10 [M] (median), SUDHL10 cells, cytotoxicity induction, CellTiter-Glo, 5 h incubation, median.

Counter-ions that a name gives are not always drawn. Like-named read-outs stand apart in the source and are kept apart here.

Chain of MCL-1 (Q07820 whole entry): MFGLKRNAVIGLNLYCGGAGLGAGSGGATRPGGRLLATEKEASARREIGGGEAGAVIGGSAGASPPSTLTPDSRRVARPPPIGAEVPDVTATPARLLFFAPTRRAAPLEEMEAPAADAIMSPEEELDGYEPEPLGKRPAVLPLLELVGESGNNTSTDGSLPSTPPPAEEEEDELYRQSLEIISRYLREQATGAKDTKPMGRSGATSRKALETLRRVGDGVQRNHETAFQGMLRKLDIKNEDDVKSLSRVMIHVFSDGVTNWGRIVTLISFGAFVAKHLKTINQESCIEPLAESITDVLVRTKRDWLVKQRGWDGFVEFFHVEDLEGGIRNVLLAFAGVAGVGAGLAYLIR

A word on the EC50: it is the concentration that produces a half-maximal response. Read a low EC50 as an effect from little substance. Regarding `Cn1nc(COc2ccc(N3CCN(S(C)(=O)=O)CC3)cc2)c2c1COCCCCn1c(C(=O)O)c(CCCOc3cccc4ccccc34)c3cccc-2c31` (racemic) [Example 1-8, (rac)-1-methyl-3-({4-[4-(methylsulfonyl)piperazin-1-yl]phenoxy}methyl)-7-[3-(naphthalen-1-yloxy)propyl]-1,10,11,12,13,15-hexahydropyrazolo[4′,3′:9,10][1,6]oxazacycloundecino[8,7,6-hi]indole-8-carboxylic Acid], the IC50 in series [1] (setting [11]) was determined as 1.07e-06 M; in series [2] (Homo sapiens, A2780, 72 h), 6.31e-06 M; in series [3], 0.00187 µM; in series [5] (setting [12]), 3.57e-06 M; in series [6] (Homo sapiens, OPM-2, 72 h), 1.24e-06 M; in series [7] (setting [13]) it was 1.44e-06 M. Also, the IC50 came to 8.33e-07 M in [8] (setting [14]) and 9.83e-07 M in series [9] (setting [15]). In addition, the EC50 in [4] (Homo sapiens, SU-DHL-5, 3 h) worked out at 0.579 µM; in [10] (Homo sapiens, SU-DHL10, 3 h), 0.953 µM.
`Cn1nc(COc2ccc(N3CCN(S(=O)(=O)C4CC4)CC3)cc2)c2c1COCCCCn1c(C(=O)O)c(CCCOc3cccc4ccccc34)c3cccc-2c31` (racemic) [Example 1-11, (rac)-3-({4-[4-(cyclopropylsulfonyl)piperazin-1-yl]phenoxy}methyl)-1-methyl-7-[3-(naphthalen-1-yloxy)propyl]-110,11,12,13,15-hexahydropyrazolo[4′,3′:9,10][1,6]oxazacycloundecino[8,7,6-hi]indole-8-carboxylic Acid]: the IC50 in [1] (setting [11]) was determined as 1.03e-06 M; in series [2] (Homo sapiens, A2780, 72 h), 4.31e-06 M; in [3], 0.00175 µM; in [5] (setting [12]), 2.44e-06 M; in series [6] (Homo sapiens, OPM-2, 72 h), 1.51e-06 M; in [7] (setting [13]), 9.28e-07 M. The IC50 in [8] (setting [14]) turned out to be 8.89e-07 M; in [9] (setting [15]), 7.61e-07 M. Besides, the EC50 in series [4] (Homo sapiens, SU-DHL-5, 3 h) came out at 0.405 µM; in series [10] (Homo sapiens, SU-DHL10, 3 h), 0.652 µM.
Turning to `Cc1ccc2c(CCCOc3cccc4ccccc34)c(C(=O)O)n3c2c1-c1c(C)nn(C)c1COCCCC3` (racemic) [Example 027, (rac)-1,3,4-trimethyl-7-[3-(naphthalen-1-yloxy)propyl]-1,10,11,12,13,15-hexahydropyrazolo[4′,3′:9,10][1,6]oxazacycloundecino[8,7,6-hi]indole-8-carboxylic Acid], the IC50 in series [1] (setting [11]) is 2.59e-05 M; in [2] (Homo sapiens, A2780, 72 h), 2.54e-05 M; in [3], 0.00527 µM; in series [5] (setting [12]), 2.98e-05 M; in [6] (Homo sapiens, OPM-2, 72 h), over 3.3e-05 M; in series [7] (setting [13]), 7.34e-06 M. For the same compound, the IC50 was determined as 8.54e-06 M in [8] (setting [14]) and 9.27e-06 M in series [9] (setting [15]). Besides, the EC50 in [4] (Homo sapiens, SU-DHL-5, 3 h) was 6.7 µM; in series [10] (Homo sapiens, SU-DHL10, 3 h) it was 20.4 µM.
On to `CCc1c2c(nn1C)COCCCCn1c(C(=O)O)c(CCCOc3cccc4ccccc34)c3cccc-2c31` (racemic) [Example 147, (rac)-3-Ethyl-2-methyl-7-[3-(1-naphthyloxy)propyl]-2,10,11,12,13,15-hexahydropyrazolo[4′,3′:9,10][1,6]oxazacycloundecino[8,7,6-hi]indole-8-carboxylic Acid], for which the IC50 in series [1] (setting [11]) was 9.53e-06 M; in series [2] (Homo sapiens, A2780, 72 h), 2.44e-05 M; in [3] it was 0.00377 µM; in [5] (setting [12]), 1.37e-05 M; in series [6] (Homo sapiens, OPM-2, 72 h), 1.05e-05 M; in series [7] (setting [13]), 3.93e-06 M. The figures for the IC50 in series [8] (setting [14]) and in [9] (setting [15]) were 2.8e-06 M and 3.06e-06 M, respectively. Besides, the EC50 in [4] (Homo sapiens, SU-DHL-5, 3 h) stood at 2.26 µM; in [10] (Homo sapiens, SU-DHL10, 3 h), 7.48 µM.
In the case of `CN1CCCn2c(C(=O)O)c(CCCOc3cccc4ccccc34)c3cccc(c32)-c2c(COc3ccc(S(C)(=O)=O)cc3)nn(C)c2C1` (single isomer, unassigned) [Example 1-49, (−)-7,9-dimethyl-11-{[4-(methylsulfonyl)phenoxy]methyl}-1-[3-(naphthalen-1-yloxy)propyl]-4,5,6,7,8,9-hexahydropyrazolo[3′,4′:7,8][1,5]diazecino[9,10,1-hi]indole-2-carboxylic Acid], the IC50 in series [1] (setting [11]) is 2.5e-05 M; in series [2] (Homo sapiens, A2780, 72 h), 2.31e-05 M; in series [3], 0.0542 µM; in series [5] (setting [12]) it was 1.21e-05 M; in [6] it was over 3.3e-05 M; in [7] (setting [13]) it was 9.58e-06 M. Further, the figures for the IC50 in series [8] (setting [16]) and in series [9] (72 h incubation) were 3.3e-05 M and 1.22e-05 M, respectively. The values for the half-maximal effective concentration (EC50) in [4] and in [10] were 20.4 µM and 18.8 µM, respectively.
As to `CN1CCCn2c(C(=O)O)c(CCCOc3cccc4ccccc34)c3cccc(c32)-c2c(COc3ccc(S(C)(=O)=O)cc3)nn(C)c2C1` (single isomer, unassigned) [Example 1-50], the IC50 was 1.26e-05 M in [1] (setting [17]); 1.83e-05 M in [2]; 0.0167 µM in series [3]; 1.05e-05 M in series [5] (MV-4-11 cells); 1.21e-05 M in series [6]; 9.59e-06 M in series [7] (72 h incubation). Also, the IC50 was determined as 5.74e-06 M in [8] (setting [16]) and 5.52e-06 M in [9] (72 h incubation). Further, the figures for the EC50 in [4] and in series [10] were 6.14 µM and 6.71 µM, respectively.
Turning to `COCC(=O)N1CCN(c2ccc(OCc3nn(C)c4c3-c3cccc5c(CCCOc6cccc7ccccc67)c(C(=O)O)n(c35)CCCCOC4)cc2)CC1` (single isomer, unassigned; enantiomer 2) [Example 1-29, 3-({4-[4-(methoxyacetyl)piperazin-1-yl]phenoxy}methyl)-1-methyl-7-[3-(naphthalen-1-yloxy)propyl]-1,10,11,12,13,15-hexahydropyrazolo[4′,3′:9,10][1,6]oxazacycloundecino[8,7,6-hi]indole-8-carboxylic Acid (Enantiomer 2)], the IC50 was 6.87e-06 M in series [1] (setting [17]); 2.38e-05 M in series [2]; 0.00119 µM in series [3]; 2.58e-06 M in series [5] (setting [12]); 4.53e-06 M in series [6]; 3.29e-06 M in series [8] (setting [16]). In addition, the IC50 in [9] (setting [15]) was 3.26e-06 M. The EC50 in series [4] worked out at 2.64 µM; in [10], 5.26 µM.
On to `Cn1nc(CN2CC3(COC3)C2)c2c1COCCCCn1c(C(=O)O)c(CCCOc3cccc4ccccc34)c3cccc-2c31` (single isomer, unassigned; enantiomer 2) [Example 345, 1-methyl-7-[3-(naphthalen-1-yloxy)propyl]-3-(2-oxa-6-azaspiro[3.3]hept-6-ylmethyl)-1,10,11,12,13,15-hexahydropyrazolo[4′,3′:9,10][1,6]oxazacycloundecino[8,7,6-hi]indole-8-carboxylic acid-N-ethylethanamine Salt (Enantiomer 2)], for which the IC50 in series [1] (read-out: Cytotox SUDHL10 [M] (median), SUDHL10 cells, cytotoxicity induction, CellTiter-Glo, 5 h, median) turned out to be 1.32e-05 M; in series [2] it was 1.59e-05 M; in series [3] it was 0.026 µM; in series [5] (Homo sapiens, MV4-11, MV-4-11 cells) it was 7.47e-06 M; in [7] (72 h), 5.68e-06 M; in series [8] (read-out: Cytotox SUDHL5 [M] (median), SUDHL5 cells, cytotoxicity induction, CellTiter-Glo, 5 h, median) it was 8.32e-06 M. Besides, the IC50 in series [9] (72 h) is 7.32e-06 M. The EC50 in [4] came out at 7.02 µM; in [10], 12.8 µM.

Source of the values: patent US10981932B2, “Macrocyclic indole derivatives” (Bayer Aktiengesellschaft, priority 2016, dated 2021).
